One assay relates to human platelets. In words: Inhibitory effect on platelet aggregation in human platelet rich plasma. Format: cell-based. The method, then:
For experiment, a blood platelet concentrate which was purchased from the Blood Bank of the Seoul National University Hospital, Korea, was measured for the number of platelets with the aid of a platelet analyzer (PLT-4, Texas Instruments), and diluted with phosphate buffered saline (hereinafter referred to as “PBS”) to give platelet rich plasma (hereinafter referred to as “PRP”) which ranged, in platelet number, from 300×10^6 to 400×10^6/ml. After being incubated at 37° C. for 3 min, PRP was added with ADP, collagen or epinephrine to induce platelet aggregation. The reduction in turbidity of PRP was observed and the degree of aggregation was monitored using a platelet aggregometer, such as that manufactured by Chrono-Log Corp. U.S.A., identified as “Model 500VS”.
The inhibitory activities of sample compounds against the platelet aggregation were evaluated as the % inhibition calculated according to the following equation: […]
A: aggregation degree of platelets obtained when adding a platelet aggregation inducer alone;
B: aggregation degree of platelets obtained when adding a combination of a platelet aggregation inducer and a sample.
Obtained using human platelets, the inhibitory effects of the compounds of Chemical Formulas 1 and 2 on platelet aggregation are given, along with the results from the control higenamine, in Table 1, below.

In assay [1] the test system is acute thrombosis in the pulmonary artery. Put plainly: Acute thrombosis (collagen plus epinephrine i.v.) in mice, recovery from paralysis. Format: in vivo. The procedure: A mixture of collagen (300:μg/kg) plus epinephrine (30:μg/kg) was injected into the tail vein of mice (ICR; […], the same mice were employed in all of the following experiments) to induce massive, acute thrombosis in the pulmonary artery. Thus, an acute thrombosis model, in which mice were paralyzed in 1-3 min after the injection and most of them died within 15 min was prepared. To investigate the effect of the compounds of Chemical Formulas 1 and 2 on the acute thrombosis, either of the compounds was orally administered to mice for 1 or 3 days. The intravenous injection of the mixture of collagen and epinephrine was conducted 1 hour after the final oral administration. An observation was taken to examine the mortality change and the recovery from the paralysis and the results are given in Tables 4 and 5, below.
Most of the mice were paralyzed within 1 min after the injection, following dilation of the pupils, difficult breathing, and convulsions. Most of the mice either died within 5 min or were subjected to paralysis for 15 min or longer. Only a few of them recovered from the paralysis.

Assay [2] has as its system thrombus formation in AVS tube. In words: Thrombus formation in arterio-venous shunt (AVS) tube in rats. Format: in vivo. To be noted: for Weight (mg) of thrombus: control 42.67 ± 5.381. The method, then: An AVS tube was prepared. For this, a scalp vein set was cut into a length of 18 cm, and each end was connected to a 18G syringe needle while a 100% cotton thread 5 cm long was fixed to the center of the tube. Rats were anesthetized with ketamine (250 mg/kg) by injection (i.m.) and underwent laparotomy. An AVS tube filled with saline was installed between the abdominal aorta and the renal vein in such a way that its one syringe needle was inserted in the abdominal aorta and the other syringe needle was inserted in the renal vein. Blood was allowed to pass through the AVS tube so as to form thrombus on the cotton thread. After circulation of blood through the AVS tube for 15 min, the thread was taken out from the AVS tube. The weight of the thrombus formed on the cotton thread was determined by weighing the thread.

The test system of another assay is LPS-caused death. In words: Preventive effect on LPS-caused death in mice. The assay is classed as in vivo. To be noted: for survival rate until 48 hours: 10 mg/kg i.p. 30 min before LPS (20 mg/kg i.p.), LPS only about 20%; for deaths up to 30 hours after the LPS injection: 20 mg/kg i.p. 30 min before LPS (20 mg/kg i.p.). The method, then:
When a large quantity of LPS is injected into animals, various diseases, such as DIC, are generated and they are dead of septic shock in a short period of time. In this experiment, LPS (20 mg/kg) was intraperitoneally injected into mice and the number of mice which were alive for 48 hours after the injection, was counted. Also, an examination was made of the influence of test drugs on the survival ratio.
LPS (20 mg/kg) was administered to mice by injection (i.p.), after which the mice alive were countered every 6 hours for 48 hours. 30 min before LPS injection, test drugs were intraperitoneally injected into the mice to examine the preventive effect on the LPS-caused death.

The mark [3] stands for this setting: Homo sapiens, read-out: IC50 (M), ADP-induced platelet aggregation.
[4] abbreviates: human PRP, inducer collagen 2-4 × 10^−6 g/ml, read-out: IC50 (M), collagen-induced platelet aggregation.
The mark [5] stands for this setting: human PRP, inducer epinephrine 2 × 10^−6 M, read-out: IC50 (M), epinephrine-induced platelet aggregation.
Where [6] appears, read: 10 mg/kg orally once for three successive days, recovered within 15 min.
The mark [7] stands for this setting: 10 mg/kg orally once for three successive days, recovered within 15 min, control 20%.
Where [8] appears, read: 50 mg/kg orally once for three successive days, recovered within 15 min.
[9] abbreviates: 50 mg/kg orally once for three successive days, recovered within 15 min, control 20%.
Where [10] appears, read: 50 mg/kg orally once, recovered from thrombotic paralysis within 15 min.
Setting [11] is: 50 mg/kg orally once, recovered within 15 min, control 17%.
[12] abbreviates: 100 mg/kg orally once, recovered from thrombotic paralysis within 15 min.
Setting [13] is: 100 mg/kg orally once, recovered within 15 min, control 17%.
Setting [14] is: 10 mg/kg orally once a day for successive three days.
[15] abbreviates: 25 mg/kg orally once, first series, control 33.61 mg.
Setting [16] is: 25 mg/kg orally once, first series, control 33.61 ± 7.620.
[17] abbreviates: 50 mg/kg orally once a day for successive three days.
Setting [18] is: 50 mg/kg orally once, second series, control 39.54 mg.
Setting [19] is: 50 mg/kg orally once, second series, control 39.54 ± 5.625.

Structures are written as SMILES. Like-named read-outs stand apart in the source and are kept apart here.

In the case of `Oc1cc2c(cc1O)C(Cc1cccc3ccccc13)NCC2` (stereo not drawn) [Compound 1, 1-α-naphthylmethyl-6,7-dihydroxy-1,2,3,4-tetrahydroisoquinoline], the half-maximal inhibitory concentration (IC50) was determined as 0.00073 M with human platelets (setting [3]), 9.2e-05 M with human platelets (setting [4]) and 3.4e-06 M in the assay on human platelets (setting [5]). The “Mice Recovered, Number” value came to 3 in assay [1] (setting [6]), 5 in assay [1] (setting [8]), 8 in assay [1] (setting [10]) and 9 in assay [1] (setting [12]). In addition, the “Mice Recovered, %” value in assay [1] (setting [7]) came to 30%; in assay [1] (setting [9]) it was 42%; in assay [1] (setting [11]) it was 47%; in assay [1] (setting [13]) it was 45%. Besides, the “% Inhibition of thrombus formation” value is on record as 25.5% in assay [2] (setting [14]), 39.7% in assay [2] (setting [15]), 28.0% in assay [2] (setting [17]) and 24.8% in assay [2] (setting [18]). Moreover, the “Weight (mg) of thrombus” value in assay [2] (setting [14]) worked out at 31.78 ± 8.385 mg; in assay [2] (setting [17]), 30.72 ± 6.334 mg. In addition, the “Weights (mg) of thrombus” value in assay [2] (setting [16]) is given as 20.27 ± 5.366 mg; in assay [2] (setting [19]), 29.72 ± 5.975 mg. For the same molecule, the “survival rate until 48 hours” value in the assay on LPS-caused death worked out at 60%. The “deaths up to 30 hours after the LPS injection” value with LPS-caused death is “no mice were dead until 30 hours”.

In the case of `Oc1cc2c(cc1O)C(Cc1ccc3ccccc3c1)NCC2` (stereo not drawn) [Compound 2, 1-β-naphthylmethyl-6,7-dihydroxy-1,2,3,4-tetrahydroisoquinoline], the figures for the IC50 in the assay on human platelets (setting [3]), with human platelets (setting [4]) and in the assay on human platelets (setting [5]) were 0.00086 M, 9.6e-06 M and 6e-06 M, respectively. Besides, the “Mice Recovered, Number” value is on record as 7 in assay [1] (setting [6]), 7 in assay [1] (setting [8]), 14 in assay [1] (setting [10]) and 12 in assay [1] (setting [12]). Also, the “Mice Recovered, %” value is 70% in assay [1] (setting [7]), 64% in assay [1] (setting [9]), 50% in assay [1] (setting [11]) and 50% in assay [1] (setting [13]). In addition, the “% Inhibition of thrombus formation” value amounted to 24.4% in assay [2] (setting [14]), 32.5% in assay [2] (setting [15]), 29.3% in assay [2] (setting [17]) and 27.7% in assay [2] (setting [18]). For the same molecule, the “Weight (mg) of thrombus” value in assay [2] (setting [14]) worked out at 32.24 ± 4.836 mg; in assay [2] (setting [17]), 30.18 ± 6.571 mg. Further, the “Weights (mg) of thrombus” value in assay [2] (setting [16]) was found to be 22.68 ± 10.127 mg; in assay [2] (setting [19]), 28.58 ± 4.234 mg. In the assay with LPS-caused death, the “survival rate until 48 hours” value is given as 80%. In addition, the “deaths up to 30 hours after the LPS injection” value in the assay with LPS-caused death was “no mice were dead until 30 hours”.

As to `Oc1ccc(CC2NCCc3cc(O)c(O)cc32)cc1` (centres unmarked) [Higenamine, reference compound], the IC50 was over 0.001 M in the assay with human platelets (human PRP, inducer ADP 1 × 10^−3 M, read-out: IC50 (M), ADP-induced platelet aggregation); 7e-05 M in the assay on human platelets (setting [4]); 1.9e-05 M with human platelets (setting [5]). For the same molecule, the “Mice Recovered, Number” value amounted to 2 in assay [1] (setting [6]), 5 in assay [1] (setting [8]), 11 in assay [1] (setting [10]) and 13 in assay [1] (setting [12]). For the same molecule, the “Mice Recovered, %” value is 17% in assay [1] (setting [7]), 45% in assay [1] (setting [9]), 37% in assay [1] (setting [11]) and 48% in assay [1] (setting [13]). Further, the “% Inhibition of thrombus formation” value in assay [2] (setting [14]) came to 13.9%; in assay [2] (setting [15]) it was 31.6%; in assay [2] (setting [17]) it was 18.7%; in assay [2] (setting [18]), 25.1%. The “Weight (mg) of thrombus” value in assay [2] (setting [14]) was determined as 36.76 ± 7.964 mg; in assay [2] (setting [17]), 34.68 ± 8.513 mg. Further, the “Weights (mg) of thrombus” value in assay [2] (setting [16]) was found to be 22.98 ± 11.271 mg; in assay [2] (setting [19]), 29.61 ± 5.059 mg. Besides, the “survival rate until 48 hours” value in the assay on LPS-caused death was determined as 80%.
